Earlier results on one molecule are cited in patent US8198478B2 (Ajinomoto Co., Inc., priority 2007, dated 2012).

The structures appear in SMILES notation.

The conditions of the data set: literature value (Kagaku Binran, 1993).

With `N[C@@H](CCC(=O)O)C(=O)O` [glutamic acid], the “hydrogen ion dissociation constant pk1” value was 2.19, the “hydrogen ion dissociation constant pk2” value is 4.25 and the “hydrogen ion dissociation constant pk3” value is 9.67.
